The results in this text go back to BindingDB's records for doi:10.1016/j.bmc.2012.10.036 (Glaxosmithkline, 2012).

A short description of this assay: Inhibition of glucocorticoid receptor in human H13 cells assessed as inhibition of glucocorticoid-induced cell proliferation after 3 hrs by [3H]-thymidine incorporation assay. Background: Incorporation of labelled thymidine or its analogues reports DNA synthesis.

One may read the EC50 as the concentration at which the effect is half-maximal.

Consider `CC[C@H]1OC(=O)[C@H](C)[C@@H](O[C@H]2C[C@@](C)(OC)[C@@H](O)[C@H](C)O2)[C@H](C)[C@@H](O[C@@H]2O[C@H](C)C[C@H](N(C)C)[C@H]2O)[C@](C)(O)C[C@@H](C)CN(CCCNC(=O)[C@H]2[C@H](C)C[C@H]3[C@@H]4CCC5=CC(=O)C=C[C@]5(C)[C@@]4(F)[C@@H](O)C[C@@]32C)[C@H](C)[C@@H](O)[C@]1(C)O`, for which the 50% effective concentration (EC50) amounted to 50 nM.
